Experimental data taken from patent publication US7282339B2, “Competitive immunoassay” (Invitrogen Corporation, priority 2003, dated 2007).
“And” between values parts separate entries of the source, which are not always exact repeats. Identical values can stand only once.

Key:
[1] = tested on: ligand-detection complex of Compound 15 and P-Tyr-100 antiphosphotyrosine monoclonal antibody; assay: Displacement of phosphotyramide-dye ligand analog by phosphotyrosine (Example 21); type: binding, mouse; conditions: 10 μM
Description: Solutions containing 100 nM ligand analog Compound 15 or ligand-detection complex (100 nM (B573-85-HCK)+100 nM P-Tyr-100 antiphosphotyrosine monoclonal antibody (Cell Signaling Technology, Beverly, Mass.)) were prepared in 50 mM Tris-HCl pH 7.5, 10 mM MgCl2, 0.01% Brij-35, 100 μM ATP, 2 mM DTT, 1 mM EGTA. Fluorescence emission spectra of these samples were recorded on a Hitach F-4500 spectrofluorometer using an excitation wavelength of 470 nm. O-phosho-L-tyrosine (Sigma Chemical Co., St. Louis, Mo.) or phosphotyrosine peptide (phospho-pp60 c-src (521-533); TSTEPQY*QPGENL, Bachem California, Inc. Torrance, Calif.) at a concentration of 10 μM were added to samples of the detection complex and the resulting change in fluorescence was measured. See, FIG. 13.

[2] = tested on: P-Tyr-100 mouse monoclonal anti-phosphotyrosine antibody; assay: Efficacy of secondary antibody labels as FRET acceptors (Example 27); type: binding
Description: Solutions containing (A) 100 nM phosphotyramide ligand analog, (B) 100 nM phosphotyramide ligand analog complexed with 100 nM P-Tyr-100 mouse monoclonal anti-phosphotyrosine antibody and (C) 100 nM phosphotyramide ligand analog complexed with 100 nM P-Tyr-100 anti-phosphotyrosine antibody and 600 nM Fab fragments of goat anti-mouse IgG were prepared in 50 mM Tris-HC1, pH 7.5. Corresponding sets for solutions were prepared for Fab fragments labeled with three different dyes and an unlabeled control. Fluorescence intensities at 510 nm (excitation at 450 nm) were measured on a Hitachi F-4500 spectrofluorometer and were expressed as percentages of the intensity of the free phosphotyramide ligand sample (Table 5). […] Addition of a labeled secondary antibody produced a further decrease in intensity only in the case of the Alexa Fluor 555 labeling dye, which has spectral characteristics that are consistent with efficient fluorescence resonance energy transfer from the BODIPY FL phosphotyramide ligand (Compound 16).

[3] = tested on: p-Tyr-100 antibody; assay: Screening of phosphotyrosine ligand-binding antibodies with Compound 16 (Example 20); parameters: species or system mouse; conditions: compared with p-Tyr-69, p-Tyr-20 and 4G10 antibodies; 50 nM Compound 16
Description: A 4 mM stock of Compound 16 was made in 16% (v/v) DMSO. Three different antibodies were diluted to 1 μM in 50 mM MOPS, pH 7.2:1) p-Tyr-100 antibody (Cell Signaling Technology, catalog # 9411); 2) p-Tyr-69 antibody (BD Transduction Labs, catalog # 610430); 3) p-Tyr-20 antibody (BD Transduction Labs, catalog # 610000). A fourth antibody, the 4G10 antibody (Upstate Biotechnology, catalog # 05-321), was diluted to 400 nM in MOPS buffer. The antibodies were serially diluted in a microplate in 25 μl 50 mM MOPS, pH 7.2, buffer. 25 μl 100 nM Compound 16 in MOPS buffer was added to all wells. The fluorescence intensity was measured on an EnVision microplate reader (Perkin Elmer), PMT 1 gain 155, PMT 2 gain 187, excitation light 53%, 100 flashes at 9 mM height.

Molecule: N[C@@H](Cc1ccc(OP(=O)(O)O)cc1)C(=O)O [Phosphotyrosine, O-phosho-L-tyrosine]
- displacement of phosphotyramide-dye ligand analog from antibody binding sites [1]: Minimal Displacement

Molecule: BODIPY FL phosphotyramide [Compound 16]
- fluorescence intensity at 510 nm, Sample C ([2]; 100 nM Compound 16 + 100 nM P-Tyr-100 + 600 nM Fab labeled Alexa Fluor 555 (DOS 3.8), percentages of Sample A): 36 percentages
- fluorescence intensity at 510 nm, Sample C ([2]; 100 nM Compound 16 + 100 nM P-Tyr-100 + 600 nM Fab labeled Alexa Fluor 594 (DOS 2.5), percentages of Sample A): 48 percentages
- fluorescence intensity at 510 nm, Sample C ([2]; 100 nM Compound 16 + 100 nM P-Tyr-100 + 600 nM Fab labeled Alexa Fluor 647 (DOS 2.8), percentages of Sample A): 47 percentages
- fluorescence intensity at 510 nm, Sample C ([2]; 100 nM Compound 16 + 100 nM P-Tyr-100 + 600 nM Fab, Unlabeled, percentages of Sample A): 51 percentages
- fluorescence intensity at 510 nm, Sample B ([2]; 100 nM Compound 16 + 100 nM P-Tyr-100, percentages of Sample A, excitation 450 nm): 49 percentages and 51 percentages and 53 percentages
- fluorescence intensity at 510 nm, Sample A ([2]; 100 nM Compound 16 alone, reference set to 100, excitation 450 nm): 100 percentages
- decrease of fluorescence intensity on binding to the P-Tyr-100 antibody ([2]; 100 nM ligand analog + 100 nM P-Tyr-100): approximately 50%
- affinity of antibody for the ligand analog [3]: highest affinity
